Experimental data taken from ChEMBL document CHEMBL1201862, “PubChem BioAssay data set” (2004).
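Compound exposure: 48 hours, 5 concentrations, 96-well plates. GI50: concentration for 50% inhibition of growth.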 Activity calls are given as the source filed them. Cut-off read from the data, not from the text of the source: active = GI50 up to about 1.1 µM and inactive = higher.

Tests used:
Test in all cases: DTP human tumour cell line panel, 48 h
[1] = test system: RXF 631
[2] = test system: DMS-114
[3] = test system: HOP-18
[4] = test system: 786-0
[5] = test system: PC-3
[6] = test system: DU-145
[7] = test system: MDA-N
[8] = test system: XF498
[9] = test system: LXFL 529

Structure (SMILES)	GI50 [2]	GI50 [5]	GI50 [6]	GI50 [7]	also measured
C=C1CC[C@@H](Br)C(C)(C)[C@]12CCC(C)(O)C(Cl)C2 (stereo partly specified)	17.2 µM (inactive)	–	–	–	GI50 [1]: 18.5 µM (inactive); GI50 [3]: 18.8 µM (inactive)
CC(=O)/N=C1\N/C(=C/c2cc([N+](=O)[O-])ccc2O)CN1C	–	> 100 µM (inactive)	> 100 µM (inactive)	> 100 µM (inactive)	GI50 [4]: > 100 µM (inactive)
N#Cc1c(Cl)cc(Cl)n2c1nc1ccccc12	–	14.3 µM (inactive)	14.3 µM (inactive)	10.1 µM (inactive)	GI50 [4]: 2.86 µM (inactive)
CC(=O)O[C@H]1CC[C@H]2[C@@H]3CCC(C(C)=O)[C@H](C(=O)O)[C@H]3CC[C@]12C (stereo partly specified)	–	> 100 µM (inactive)	–	–	–
O=c1oc2ccccc2n1P(=O)(Oc1ccc(Cl)cc1)n1c(=O)oc2ccccc21	> 100 µM (inactive)	–	–	–	GI50 [3]: > 100 µM (inactive)
CC1=C(SCCO)C(=O)c2ccccc2C1=O	–	11.4 µM (inactive)	16 µM (inactive)	5.09 µM (inactive)	–
N#C/C(=C\c1ccc(Cl)cc1)c1nc2ccccc2c(=O)[nH]1	–	> 100 µM (inactive)	> 100 µM (inactive)	> 100 µM (inactive)	GI50 [4]: 44.4 µM (inactive)
CCOc1ncn(-c2ccc(NC(=S)Nc3cccc(O)c3)cc2)n1	–	> 100 µM (inactive)	> 100 µM (inactive)	> 100 µM (inactive)	–
CCCCC(CC)C(=O)Oc1ccc(C(=O)c2ccccc2)c(O)c1 (stereo unspecified)	–	51.5 µM (inactive)	57 µM (inactive)	41.4 µM (inactive)	–
CCOC(=O)CCc1c(C)c2c(O)cc(O)cc2oc1=O	–	–	–	–	GI50 [3]: > 80.9 µM (inactive); GI50 [8]: > 100 µM (inactive)
CC12CCC(=O)N1c1cnccc1N2 (stereo unspecified)	> 100 µM (inactive)	–	–	–	GI50 [9]: > 100 µM (inactive)
O=C1C=CC=C/C1=C1\N=C(c2ccccc2OCC(=O)c2ccccc2)SS1	–	–	–	> 100 µM (inactive)	GI50 [4]: > 100 µM (inactive)
Nc1c(S(=O)(=O)O)cc(S(=O)(=O)O)c2ccc(/N=N/c3ccc(/C=C/c4ccc(/N=N/c5ccc6c(S(=O)(=O)O)cc(S(=O)(=O)O)c(N)c6c5O)cc4S(=O)(=O)O)c(S(=O)(=O)O)c3)c(O)c12	> 100 µM (inactive)	–	–	–	GI50 [3]: > 100 µM (inactive); GI50 [8]: > 46.6 µM (inactive)
Clc1cc(N/N=C(\c2ccccc2)c2ccccn2)ncn1	–	0.0728 µM (active)	0.5 µM (active)	3.33 µM (inactive)	–
CCCCCCCCCCCCCCCc1nnc(S)[nH]1	60.4 µM (inactive)	–	–	–	GI50 [9]: 30.5 µM (inactive); GI50 [8]: > 100 µM (inactive)
O=C1OC(CN2CCOCC2)CN1/N=C/c1ccc([N+](=O)[O-])o1 (stereo unspecified) [FURALTADONE]	–	54.2 µM (inactive)	73.3 µM (inactive)	–	GI50 [4]: 62.7 µM (inactive)
O=C(NN1C(=O)CSC1c1ccc(C(F)(F)F)cc1)c1ccncc1 (stereo unspecified)	> 100 µM (inactive)	–	–	–	GI50 [3]: > 100 µM (inactive); GI50 [8]: > 100 µM (inactive)
CC1(C)OC[C@H](C(=N)OCc2ccccc2)O1	> 100 µM (inactive)	–	–	–	GI50 [9]: > 100 µM (inactive); GI50 [8]: > 100 µM (inactive)
